# In patent US9951063B2, “8-(piperazin-1-yl)-1,2,3,4-tetrahydro-isoquinoline derivatives” (IDORSIA PHARMACEUTICALS LTD, priority 2014, dated 2018):
# Target: human CXCR3A (Homo sapiens (Human), UniProt P49682)
# Test: FLIPR assay (inhibition of CXCL10-induced calcium signal)
# Format: cell-based
# Conditions: engineered CHO-K1 cells expressing human CXCR3A coupled to Galpha(16); Fluo-4-AM; CXCL10 agonist 20 nM; mean values where determined several times
# Procedure, shortened: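 CHO-K1 cells expressing human CXCR3A coupled to Gα16 were loaded with Fluo-4-AM for 1 h in HBSS/20 mM Hepes pH 7.4 with probenecid. Compound was added, then CXCL10 (20 nM as dispensed). Baseline-subtracted peak fluorescence gave inhibition curves and IC50, averaged over repeats.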
# Sequence of human CXCR3A (P49682 whole entry): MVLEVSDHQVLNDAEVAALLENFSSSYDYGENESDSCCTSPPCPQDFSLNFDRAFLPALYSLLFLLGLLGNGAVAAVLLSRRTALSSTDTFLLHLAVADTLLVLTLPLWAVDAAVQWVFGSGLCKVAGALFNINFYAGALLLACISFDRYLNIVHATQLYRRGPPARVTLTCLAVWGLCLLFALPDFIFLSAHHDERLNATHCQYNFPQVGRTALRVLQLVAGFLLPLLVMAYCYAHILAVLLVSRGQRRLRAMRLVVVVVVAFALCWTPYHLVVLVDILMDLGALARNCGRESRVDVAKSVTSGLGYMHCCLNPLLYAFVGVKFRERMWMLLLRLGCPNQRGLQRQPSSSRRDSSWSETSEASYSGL
row,Compound,IC50
1,"C[C@@H]1CN(c2cccc3c2CN(c2ccccn2)CC3)CCN1C(=O)Cn1cnc2cccnc21 [Example 104, 2-Imidazo[4,5-b]pyridin-3-yl-1-[(R)-2-methyl-4-(2-pyridin-2-yl-1,2,3,4-tetrahydro-isoquinolin-8-yl)-piperazin-1-yl]-ethanone]",9.71 nM
2,"COc1ccc(N2CCc3cccc(N4CCN(C(=O)Cn5cnc6cccnc65)[C@H](C)C4)c3C2)cc1 [Example 105, 2-Imidazo[4,5-b]pyridin-3-yl-1-{(R)-4-[2-(4-methoxy-phenyl)-1,2,3,4-tetrahydro-isoquinolin-8-yl]-2-methyl-piperazin-1-yl}-ethanone]",20.3 nM
3,"C[C@@H]1CN(c2cccc3c2CN(c2cncnc2)CC3)CCN1C(=O)Cn1cnc2cccnc21 [Example 106, 2-Imidazo[4,5-b]pyridin-3-yl-1-[(R)-2-methyl-4-(2-pyrimidin-5-yl-1,2,3,4-tetrahydro-isoquinolin-8-yl)-piperazin-1-yl]-ethanone]",5.46 nM
4,"C[C@@H]1CN(c2cccc3c2CN(c2cnc(C(F)(F)F)nc2)CC3)CCN1C(=O)Cn1cnc2cccnc21 [Example 107, 2-Imidazo[4,5-b]pyridin-3-yl-1-{(R)-2-methyl-4-[2-(2-trifluoromethyl-pyrimidin-5-yl)-1,2,3,4-tetrahydro-isoquinolin-8-yl]-piperazin-1-yl}-ethanone]",1.74 nM
5,"Cc1cnc(N2CCc3cccc(N4CCN(C(=O)Cn5cnc6cccnc65)[C@H](C)C4)c3C2)nc1 [Example 108, 2-Imidazo[4,5-b]pyridin-3-yl-1-{(R)-2-methyl-4-[2-(5-methyl-pyrimidin-2-yl)-1,2,3,4-tetrahydro-isoquinolin-8-yl]-piperazin-1-yl}-ethanone]",32.6 nM
6,"Cc1ncc(N2CCc3cccc(N4CCN(C(=O)Cn5cnc6cccnc65)[C@H](C)C4)c3C2)cn1 [Example 109, 2-Imidazo[4,5-b]pyridin-3-yl-1-{(R)-2-methyl-4-[2-(2-methyl-pyrimidin-5-yl)-1,2,3,4-tetrahydro-isoquinolin-8-yl]-piperazin-1-yl}-ethanone]",12.5 nM
7,"CCCc1ncc(N2CCc3cccc(N4CCN(C(=O)Cn5cnc6cccnc65)[C@H](C)C4)c3C2)cn1 [Example 110, 2-Imidazo[4,5-b]pyridin-3-yl-1-{(R)-2-methyl-4-[2-(2-propyl-pyrimidin-5-yl)-1,2,3,4-tetrahydro-isoquinolin-8-yl]-piperazin-1-yl}-ethanone]",0.85 nM
8,"CC(C)Oc1ncc(N2CCc3cccc(N4CCN(C(=O)Cn5cnc6cccnc65)[C@H](C)C4)c3C2)cn1 [Example 111, 2-Imidazo[4,5-b]pyridin-3-yl-1-{(R)-4-[2-(2-isopropoxy-pyrimidin-5-yl)-1,2,3,4-tetrahydro-isoquinolin-8-yl]-2-methyl-piperazin-1-yl}-ethanone]",4.83 nM
9,"C[C@@H]1CN(c2cccc3c2CN(c2cnc(OCC(F)(F)F)nc2)CC3)CCN1C(=O)Cn1cnc2cccnc21 [Example 112, 2-Imidazo[4,5-b]pyridin-3-yl-1-((R)-2-methyl-4-{2-[2-(2,2,2-trifluoro-ethoxy)-pyrimidin-5-yl]-1,2,3,4-tetrahydro-isoquinolin-8-yl}-piperazin-1-yl)-ethanone]",2.98 nM
10,"C[C@@H]1CN(c2cccc3c2CN(c2nccs2)CC3)CCN1C(=O)Cn1cnc2cccnc21 [Example 113, 2-Imidazo[4,5-b]pyridin-3-yl-1-[(R)-2-methyl-4-(2-thiazol-2-yl-1,2,3,4-tetrahydro-isoquinolin-8-yl)-piperazin-1-yl]-ethanone]",12.2 nM
11,"Cc1csc(N2CCc3cccc(N4CCN(C(=O)Cn5cnc6cccnc65)[C@H](C)C4)c3C2)n1 [Example 114, 2-Imidazo[4,5-b]pyridin-3-yl-1-{(R)-2-methyl-4-[2-(4-methyl-thiazol-2-yl)-1,2,3,4-tetrahydro-isoquinolin-8-yl]-piperazin-1-yl}-ethanone]",9.53 nM
12,"C[C@@H]1CN(c2cccc3c2CN(c2ncc(-c4ccccc4)s2)CC3)CCN1C(=O)Cn1cnc2cccnc21 [Example 115, 2-Imidazo[4,5-b]pyridin-3-yl-1-{(R)-2-methyl-4-[2-(5-phenyl-thiazol-2-yl)-1,2,3,4-tetrahydro-isoquinolin-8-yl]-piperazin-1-yl}-ethanone]",13.3 nM
13,"Cc1nc(N2CCc3cccc(N4CCN(C(=O)Cn5cnc6cccnc65)[C@H](C)C4)c3C2)sc1C [Example 116, 1-{(R)-4-[2-(4,5-Dimethyl-thiazol-2-yl)-1,2,3,4-tetrahydro-isoquinolin-8-yl]-2-methyl-piperazin-1-yl}-2-imidazo[4,5-b]pyridin-3-yl-ethanone]",15.1 nM
14,"C[C@@H]1CN(c2cccc3c2CN(c2nc(C#N)cs2)CC3)CCN1C(=O)Cn1cnc2cccnc21 [Example 117, 2-{8-[(R)-4-(2-Imidazo[4,5-b]pyridin-3-yl-acetyl)-3-methyl-piperazin-1-yl]-3,4-dihydro-1H-isoquinolin-2-yl}-thiazole-4-carbonitrile]",3.7 nM
15,"COc1ncc(N2CCc3cccc(N4CCN(C(=O)Cn5cnc6cccnc65)[C@H](C)C4)c3C2)cn1 [Example 118, 2-Imidazo[4,5-b]pyridin-3-yl-1-{(R)-4-[2-(2-methoxy-pyrimidin-5-yl)-1,2,3,4-tetrahydro-isoquinolin-8-yl]-2-methyl-piperazin-1-yl}-ethanone]",6.49 nM
16,"COc1ccc(N2CCc3cccc(N4CCN(C(=O)Cn5cnc6cccnc65)[C@H](C)C4)c3C2)nn1 [Example 119, 2-Imidazo[4,5-b]pyridin-3-yl-1-{(R)-4-[2-(6-methoxy-pyridazin-3-yl)-1,2,3,4-tetrahydro-isoquinolin-8-yl]-2-methyl-piperazin-1-yl}-ethanone]",10.9 nM
17,"COc1cncc(N2CCc3cccc(N4CCN(C(=O)Cn5cnc6cccnc65)[C@H](C)C4)c3C2)n1 [Example 120, 2-Imidazo[4,5-b]pyridin-3-yl-1-{(R)-4-[2-(6-methoxy-pyrazin-2-yl)-1,2,3,4-tetrahydro-isoquinolin-8-yl]-2-methyl-piperazin-1-yl}-ethanone]",2.03 nM
18,"COc1nc(OC)nc(N2CCc3cccc(N4CCN(C(=O)Cn5cnc6cccnc65)[C@H](C)C4)c3C2)n1 [Example 121, 1-{(R)-4-[2-(4,6-Dimethoxy-[1,3,5]triazin-2-yl)-1,2,3,4-tetrahydro-isoquinolin-8-yl]-2-methyl-piperazin-1-yl}-2-imidazo[4,5-b]pyridin-3-yl-ethanone]",3.39 nM
19,"COc1nccc(N2CCc3cccc(N4CCN(C(=O)Cn5cnc6cccnc65)[C@H](C)C4)c3C2)n1 [Example 122, 2-Imidazo[4,5-b]pyridin-3-yl-1-{(R)-4-[2-(2-methoxy-pyrimidin-4-yl)-1,2,3,4-tetrahydro-isoquinolin-8-yl]-2-methyl-piperazin-1-yl}-ethanone]",27.9 nM
20,"CCOc1ncc(N2CCc3cccc(N4CCN(C(=O)Cn5cnc6cccnc65)[C@H](C)C4)c3C2)cn1 [Example 123, 1-{(R)-4-[2-(2-Ethoxy-pyrimidin-5-yl)-1,2,3,4-tetrahydro-isoquinolin-8-yl]-2-methyl-piperazin-1-yl}-2-imidazo[4,5-b]pyridin-3-yl-ethanone]",4.71 nM
21,"C[C@@H]1CN(c2cccc3c2CN(c2nc(-c4ccccc4)cs2)CC3)CCN1C(=O)Cn1cnc2cccnc21 [Example 124, 2-Imidazo[4,5-b]pyridin-3-yl-1-{(R)-2-methyl-4-[2-(4-phenyl-thiazol-2-yl)-1,2,3,4-tetrahydro-isoquinolin-8-yl]-piperazin-1-yl}-ethanone]",34.4 nM
22,"Cc1nc(C)n(CC(=O)N2CCN(c3cccc4c3CN(c3cnc(C(F)(F)F)nc3)CC4)C[C@H]2C)n1 [Example 125, 2-(3,5-Dimethyl-[1,2,4]triazol-1-yl)-1-{(R)-2-methyl-4-[2-(2-trifluoromethyl-pyrimidin-5-yl)-1,2,3,4-tetrahydro-isoquinolin-8-yl]-piperazin-1-yl}-ethanone]",47.4 nM
23,"Cc1nc(C)n(CC(=O)N2CCN(c3cccc4c3CN(c3cnc(C5CC5)nc3)CC4)C[C@H]2C)n1 [Example 126, 1-{(R)-4-[2-(2-Cyclopropyl-pyrimidin-5-yl)-1,2,3,4-tetrahydro-isoquinolin-8-yl]-2-methyl-piperazin-1-yl}-2-(3,5-dimethyl-[1,2,4]triazol-1-yl)-ethanone]",3.98 nM
24,"CCOc1ncc(N2CCc3cccc(N4CCN(C(=O)Cn5nc(C)nc5C)[C@H](C)C4)c3C2)cn1 [Example 127, 2-(3,5-Dimethyl-[1,2,4]triazol-1-yl)-1-{(R)-4-[2-(2-ethoxy-pyrimidin-5-yl)-1,2,3,4-tetrahydro-isoquinolin-8-yl]-2-methyl-piperazin-1-yl}-ethanone]",33.1 nM
25,"CCOc1ncc(N2CCc3cccc(N4CCN(C(=O)Cn5nc(C)cc5C)[C@H](C)C4)c3C2)cn1 [Example 128, 2-(3,5-Dimethyl-pyrazol-1-yl)-1-{(R)-4-[2-(2-ethoxy-pyrimidin-5-yl)-1,2,3,4-tetrahydro-isoquinolin-8-yl]-2-methyl-piperazin-1-yl}-ethanone]",7.94 nM
26,"CCOc1ncc(N2CCc3c(F)ccc(N4CCN(C(=O)Cn5cnc6cccnc65)[C@H](C)C4)c3C2)cn1 [Example 129, 1-{(R)-4-[2-(2-Ethoxy-pyrimidin-5-yl)-5-fluoro-1,2,3,4-tetrahydro-isoquinolin-8-yl]-2-methyl-piperazin-1-yl}-2-imidazo[4,5-b]pyridin-3-yl-ethanone]",3.1 nM
27,"CCOc1ncc(N2CCc3c(F)ccc(N4CCN(C(=O)Cn5nc(C)cc5C)[C@H](C)C4)c3C2)cn1 [Example 130, 2-(3,5-Dimethyl-pyrazol-1-yl)-1-{(R)-4-[2-(2-ethoxy-pyrimidin-5-yl)-5-fluoro-1,2,3,4-tetrahydro-isoquinolin-8-yl]-2-methyl-piperazin-1-yl}-ethanone]",5.7 nM
28,"CCOc1ncc(N2CCc3c(F)ccc(N4CCN(C(=O)Cn5nc(C)nc5C)[C@H](C)C4)c3C2)cn1 [Example 131, 2-(3,5-Dimethyl-[1,2,4]triazol-1-yl)-1-{(R)-4-[2-(2-ethoxy-pyrimidin-5-yl)-5-fluoro-1,2,3,4-tetrahydro-isoquinolin-8-yl]-2-methyl-piperazin-1-yl}-ethanone]",24.3 nM
